Results: ChEMBL document CHEMBL4007392, “Modulating Mineralocorticoid Receptor with Non-steroidal Antagonists. New Opportunities for the Development of Potent and Selective Ligands without Off-Target Side Effects” (J Med Chem, 2017)
Values belong to the compound of their own block, whether it stands above or below them.

Assays:
[1] = target: Mineralocorticoid receptor (Homo sapiens, UniProt P08235, C808S); assay: Binding affinity to N-terminal 6His-GST-tagged human MR LBD (727 to 984 residues) harboring C808S mutation expressed in Escherichia coli BL21DE3/corticosterone complex by AlphaScreen assay
Mineralocorticoid receptor (Homo sapiens, UniProt P08235, C808S), sequence (P08235 whole entry C808S, the tested form may be a part): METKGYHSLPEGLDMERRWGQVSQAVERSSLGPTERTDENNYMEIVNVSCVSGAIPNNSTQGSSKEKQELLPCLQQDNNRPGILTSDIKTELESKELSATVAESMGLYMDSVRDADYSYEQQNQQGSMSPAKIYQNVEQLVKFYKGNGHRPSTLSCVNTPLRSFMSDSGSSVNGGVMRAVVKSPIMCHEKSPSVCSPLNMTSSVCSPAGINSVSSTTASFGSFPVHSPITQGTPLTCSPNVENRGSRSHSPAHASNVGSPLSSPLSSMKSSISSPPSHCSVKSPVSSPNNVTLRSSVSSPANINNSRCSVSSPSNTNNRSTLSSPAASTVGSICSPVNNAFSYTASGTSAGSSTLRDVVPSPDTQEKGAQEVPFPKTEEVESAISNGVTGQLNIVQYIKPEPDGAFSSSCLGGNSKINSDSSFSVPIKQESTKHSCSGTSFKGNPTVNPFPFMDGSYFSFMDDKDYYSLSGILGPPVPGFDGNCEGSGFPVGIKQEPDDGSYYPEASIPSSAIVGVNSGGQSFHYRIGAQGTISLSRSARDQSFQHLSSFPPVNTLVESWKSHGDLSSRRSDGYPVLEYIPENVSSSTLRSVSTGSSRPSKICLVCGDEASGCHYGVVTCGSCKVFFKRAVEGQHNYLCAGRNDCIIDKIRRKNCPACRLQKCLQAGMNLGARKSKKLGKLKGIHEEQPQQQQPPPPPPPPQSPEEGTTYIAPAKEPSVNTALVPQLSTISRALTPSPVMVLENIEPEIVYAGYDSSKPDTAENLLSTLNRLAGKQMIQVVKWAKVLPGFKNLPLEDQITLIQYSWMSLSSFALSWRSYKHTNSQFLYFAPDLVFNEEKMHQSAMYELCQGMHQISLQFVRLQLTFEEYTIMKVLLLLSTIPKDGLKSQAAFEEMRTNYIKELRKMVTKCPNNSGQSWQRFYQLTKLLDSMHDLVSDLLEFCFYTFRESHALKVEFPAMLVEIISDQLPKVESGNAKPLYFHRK

[2] = target: T1, Mineralocorticoid receptor (Rattus norvegicus, UniProt P22199); assay: Displacement of [3H]-Aldosterone from MR in rat renal soluble fraction measured after 18 hrs in presence of glucocorticoid receptor antagonist RU-486 by liquid scintillation counting method
T1 sequence (P22199 whole entry): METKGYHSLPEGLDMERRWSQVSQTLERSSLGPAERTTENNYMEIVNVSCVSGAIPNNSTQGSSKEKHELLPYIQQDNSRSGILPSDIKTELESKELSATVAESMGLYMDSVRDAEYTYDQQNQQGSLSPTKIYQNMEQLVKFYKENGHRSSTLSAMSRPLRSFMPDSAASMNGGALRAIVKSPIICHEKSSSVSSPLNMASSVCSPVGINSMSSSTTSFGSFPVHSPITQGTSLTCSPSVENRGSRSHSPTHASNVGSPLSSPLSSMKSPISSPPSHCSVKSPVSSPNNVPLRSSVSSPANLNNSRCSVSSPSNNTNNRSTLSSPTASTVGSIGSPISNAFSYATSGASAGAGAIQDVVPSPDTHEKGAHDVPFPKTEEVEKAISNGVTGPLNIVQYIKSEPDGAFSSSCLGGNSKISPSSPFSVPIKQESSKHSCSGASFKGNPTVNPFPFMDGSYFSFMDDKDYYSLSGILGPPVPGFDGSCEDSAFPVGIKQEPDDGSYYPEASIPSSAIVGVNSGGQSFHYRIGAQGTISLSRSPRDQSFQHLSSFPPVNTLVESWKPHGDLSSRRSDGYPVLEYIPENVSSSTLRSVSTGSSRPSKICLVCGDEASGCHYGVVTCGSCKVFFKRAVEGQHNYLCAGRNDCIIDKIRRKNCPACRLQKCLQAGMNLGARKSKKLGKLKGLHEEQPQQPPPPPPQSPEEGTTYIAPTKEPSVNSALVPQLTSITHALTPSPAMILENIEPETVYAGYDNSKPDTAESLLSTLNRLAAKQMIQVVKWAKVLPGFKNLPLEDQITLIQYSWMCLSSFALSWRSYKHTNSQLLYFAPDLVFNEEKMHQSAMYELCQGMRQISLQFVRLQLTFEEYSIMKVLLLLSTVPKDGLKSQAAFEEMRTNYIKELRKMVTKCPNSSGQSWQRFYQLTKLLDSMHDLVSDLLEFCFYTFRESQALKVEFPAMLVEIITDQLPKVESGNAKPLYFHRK

[3] = target: T2, Androgen receptor (Homo sapiens, UniProt P10275); assay: Antagonist activity at GAL4-fused human AR LBD (667 to 919 residues) expressed in CHO-K1 cells assessed as inhibition of dihydrotestosterone-induced transactivation activity after 5 to 6 hrs by luciferase reporter gene assay; assay type: cell-based
T2 sequence (P10275 whole entry): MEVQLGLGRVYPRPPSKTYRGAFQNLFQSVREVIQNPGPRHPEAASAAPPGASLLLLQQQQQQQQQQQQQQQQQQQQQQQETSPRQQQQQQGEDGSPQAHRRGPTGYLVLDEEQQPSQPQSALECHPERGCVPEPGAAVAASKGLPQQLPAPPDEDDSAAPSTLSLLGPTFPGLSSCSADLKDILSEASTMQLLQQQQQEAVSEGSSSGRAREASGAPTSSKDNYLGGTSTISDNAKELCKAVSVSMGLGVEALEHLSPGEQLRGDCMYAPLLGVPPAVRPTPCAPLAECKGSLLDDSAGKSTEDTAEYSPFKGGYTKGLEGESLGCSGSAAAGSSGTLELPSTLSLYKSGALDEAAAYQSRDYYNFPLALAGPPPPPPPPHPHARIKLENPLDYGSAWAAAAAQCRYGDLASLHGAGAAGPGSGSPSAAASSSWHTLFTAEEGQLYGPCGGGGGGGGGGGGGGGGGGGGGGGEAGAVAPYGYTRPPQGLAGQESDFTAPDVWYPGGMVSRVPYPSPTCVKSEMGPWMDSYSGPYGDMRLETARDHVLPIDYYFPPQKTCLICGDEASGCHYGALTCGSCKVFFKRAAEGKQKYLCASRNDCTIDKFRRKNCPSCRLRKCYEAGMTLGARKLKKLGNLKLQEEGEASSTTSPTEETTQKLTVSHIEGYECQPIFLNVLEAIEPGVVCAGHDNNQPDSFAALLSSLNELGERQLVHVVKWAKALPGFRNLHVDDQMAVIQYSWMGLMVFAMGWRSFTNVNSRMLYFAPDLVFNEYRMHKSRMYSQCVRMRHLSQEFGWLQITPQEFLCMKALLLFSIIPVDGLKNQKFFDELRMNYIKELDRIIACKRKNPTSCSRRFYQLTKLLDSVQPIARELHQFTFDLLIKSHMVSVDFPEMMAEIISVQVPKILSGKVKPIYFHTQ

[4] = target: T3, Progesterone receptor (Homo sapiens, UniProt P06401); assay: Antagonist activity at GAL4-fused human PR LBD (680 to 933 residues) expressed in CHO-K1 cells assessed as inhibition of progesterone-induced transactivation activity after 5 to 6 hrs by luciferase reporter gene assay; assay type: cell-based
T3 sequence (P06401 whole entry): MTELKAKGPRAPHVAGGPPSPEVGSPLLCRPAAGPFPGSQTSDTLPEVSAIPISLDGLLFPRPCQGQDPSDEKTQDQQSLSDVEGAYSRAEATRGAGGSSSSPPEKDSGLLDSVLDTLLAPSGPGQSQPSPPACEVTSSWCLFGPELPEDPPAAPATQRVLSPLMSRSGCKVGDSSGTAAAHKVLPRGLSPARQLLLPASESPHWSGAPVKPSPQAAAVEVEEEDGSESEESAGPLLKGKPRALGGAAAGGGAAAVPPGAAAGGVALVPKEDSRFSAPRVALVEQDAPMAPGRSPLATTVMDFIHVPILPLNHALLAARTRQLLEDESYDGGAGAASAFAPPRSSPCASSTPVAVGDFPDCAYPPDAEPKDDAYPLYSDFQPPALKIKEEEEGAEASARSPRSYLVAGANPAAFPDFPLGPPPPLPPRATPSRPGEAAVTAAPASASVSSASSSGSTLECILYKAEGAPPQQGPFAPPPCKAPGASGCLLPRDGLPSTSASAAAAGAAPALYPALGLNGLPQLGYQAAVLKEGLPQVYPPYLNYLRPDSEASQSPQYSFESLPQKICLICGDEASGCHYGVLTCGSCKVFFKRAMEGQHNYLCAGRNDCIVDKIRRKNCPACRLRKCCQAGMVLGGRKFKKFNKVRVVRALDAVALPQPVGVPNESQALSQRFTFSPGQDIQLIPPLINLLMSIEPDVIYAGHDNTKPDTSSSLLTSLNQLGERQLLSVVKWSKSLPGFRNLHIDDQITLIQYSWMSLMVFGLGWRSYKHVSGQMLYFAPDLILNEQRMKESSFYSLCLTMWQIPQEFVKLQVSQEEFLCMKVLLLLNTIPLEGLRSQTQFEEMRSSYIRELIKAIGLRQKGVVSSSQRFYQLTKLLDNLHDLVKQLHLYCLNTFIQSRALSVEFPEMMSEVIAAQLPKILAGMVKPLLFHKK

[5] = target: T4, Mineralocorticoid receptor (Homo sapiens, UniProt P08235); assay: Antagonist activity at Gal4-fused human MR LBD (734 to 985 residues) expressed in CHO-K1 cells after 5 to 6 hrs by luciferase reporter gene assay; assay type: cell-based
T4 sequence (P08235 whole entry): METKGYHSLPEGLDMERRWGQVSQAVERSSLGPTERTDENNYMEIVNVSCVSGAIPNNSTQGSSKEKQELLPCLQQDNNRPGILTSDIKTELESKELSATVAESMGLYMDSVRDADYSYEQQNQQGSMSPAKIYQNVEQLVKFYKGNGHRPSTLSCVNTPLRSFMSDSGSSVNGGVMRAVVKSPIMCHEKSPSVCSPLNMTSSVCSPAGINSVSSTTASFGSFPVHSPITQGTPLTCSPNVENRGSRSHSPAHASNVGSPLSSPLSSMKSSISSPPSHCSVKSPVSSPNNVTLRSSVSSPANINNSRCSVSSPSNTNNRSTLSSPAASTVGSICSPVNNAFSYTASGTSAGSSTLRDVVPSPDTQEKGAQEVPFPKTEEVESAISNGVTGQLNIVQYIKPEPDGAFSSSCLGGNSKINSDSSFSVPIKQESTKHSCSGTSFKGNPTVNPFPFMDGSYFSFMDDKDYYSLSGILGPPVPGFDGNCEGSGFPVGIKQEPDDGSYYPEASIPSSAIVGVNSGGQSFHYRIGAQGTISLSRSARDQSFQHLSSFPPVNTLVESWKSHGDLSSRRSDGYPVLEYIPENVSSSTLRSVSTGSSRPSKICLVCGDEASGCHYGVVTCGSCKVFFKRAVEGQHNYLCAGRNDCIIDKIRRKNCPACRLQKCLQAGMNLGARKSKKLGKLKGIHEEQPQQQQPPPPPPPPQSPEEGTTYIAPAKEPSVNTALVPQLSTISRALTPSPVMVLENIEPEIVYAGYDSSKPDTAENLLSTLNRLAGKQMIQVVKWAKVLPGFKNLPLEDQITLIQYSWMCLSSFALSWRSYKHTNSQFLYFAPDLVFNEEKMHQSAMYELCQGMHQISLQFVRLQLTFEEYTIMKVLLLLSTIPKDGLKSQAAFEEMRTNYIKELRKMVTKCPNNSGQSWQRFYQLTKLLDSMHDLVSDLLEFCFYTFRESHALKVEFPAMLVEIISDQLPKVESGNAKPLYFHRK

[6] = target: T5, Glucocorticoid receptor (Homo sapiens, UniProt P04150); assay: Antagonist activity at GAL4-fused human GR LBD (443 to 777 residues) expressed in CHO-K1 cells assessed as inhibition of dexamethasone-induced transactivation activity after 5 to 6 hrs by luciferase reporter gene assay; assay type: cell-based
T5 sequence (P04150 whole entry): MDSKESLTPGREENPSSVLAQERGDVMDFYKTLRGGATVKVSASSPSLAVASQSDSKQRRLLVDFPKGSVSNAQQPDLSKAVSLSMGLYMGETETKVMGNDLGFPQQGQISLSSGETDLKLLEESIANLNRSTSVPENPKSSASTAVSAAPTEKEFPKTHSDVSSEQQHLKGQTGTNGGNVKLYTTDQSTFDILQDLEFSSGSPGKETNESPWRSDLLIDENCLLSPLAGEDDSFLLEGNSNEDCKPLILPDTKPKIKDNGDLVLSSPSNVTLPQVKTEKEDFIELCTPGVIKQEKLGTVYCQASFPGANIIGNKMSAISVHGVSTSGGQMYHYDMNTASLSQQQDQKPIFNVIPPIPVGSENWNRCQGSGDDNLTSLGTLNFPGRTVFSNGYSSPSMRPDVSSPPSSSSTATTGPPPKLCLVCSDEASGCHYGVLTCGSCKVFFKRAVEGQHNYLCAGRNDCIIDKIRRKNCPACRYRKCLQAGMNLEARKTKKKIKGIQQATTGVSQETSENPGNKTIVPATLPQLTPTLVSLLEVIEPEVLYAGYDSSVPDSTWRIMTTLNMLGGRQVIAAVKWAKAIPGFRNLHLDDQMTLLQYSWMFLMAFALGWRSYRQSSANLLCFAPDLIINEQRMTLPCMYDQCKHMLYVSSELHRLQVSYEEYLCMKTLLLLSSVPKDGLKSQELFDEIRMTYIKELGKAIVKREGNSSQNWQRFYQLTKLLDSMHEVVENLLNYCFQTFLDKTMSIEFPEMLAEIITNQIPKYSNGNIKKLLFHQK

[7] = target: T4, Mineralocorticoid receptor; assay: Binding affinity to MR (unknown origin)
[8] = target: T6, Mineralocorticoid receptor (Homo sapiens) (UniProt P08235); assay: Antagonist activity at full-length human MR expressed in CHO-K1 cells assessed as inhibition of aldosterone-induced response measured after overnight incubation by luminesence analysis; assay type: cell-based
T6 sequence (whole entry): T4 sequence (P08235 whole entry)

[9] = Half life in human liver microsomes; assay type: ADME, microsome
[10] = Half life in human hepatocytes; assay type: ADME, cell-based, Hepatocyte

Compound: COc1cc(NC(=O)c2ccc(-c3ccccc3C(F)(F)F)c(COC(C)=O)c2)ccc1S(N)(=O)=O
IC50 [2]: 0.031 µM

Compound: COc1cc(NC(=O)c2ccc(-c3ccccc3OC(F)(F)F)c(CCN3CC(C)OC(C)C3)c2)ccc1S(N)(=O)=O (stereo not given)
IC50 [2]: 0.061 µM

Compound: CCOc1nccc2c1[C@H](c1ccc(C#N)cc1OC)C(C#N)=C(C)N2
IC50 [3]: 2.8 µM
IC50 [4]: 5.4 µM
IC50 [5]: 0.047 µM
IC50 [6]: 6.9 µM

Compound: CC(C)C[C@H](NC(=O)[C@H](CO)NC(=O)[C@H](CCCCN)NC(=O)[C@H](CCC(N)=O)NC(=O)[C@H](CCC(N)=O)NC(=O)[C@H](C)N)C(=O)N[C@@H](CC(C)C)C(=O)N[C@@H](CCC(N)=O)C(=O)N[C@@H](CCC(N)=O)C(=O)N[C@@H](CC(C)C)C(=O)N[C@@H](CC(C)C)C(=O)N[C@H](C(=O)N[C@@H](CCC(=O)O)C(=O)O)[C@@H](C)O
IC50 [1]: 0.9 µM

Compound: CCOc1ncc(C)c2c1[C@H](c1ccc(C#N)cc1OC)C(C#N)=C(C)N2
IC50 [3]: 2.4 µM
IC50 [4]: 4.2 µM
IC50 [5]: 0.026 µM
IC50 [6]: 5.8 µM

Compound: CCC(c1ccc(Br)cc1)(C(C)O)n1ncc2c(NS(C)(=O)=O)cccc21 (stereo not given)
Inhibitory potency [8]: 0.007 µM
half-life [9]: 48 min
half-life [10]: 69 min

Compound: COc1cc(NC(=O)c2ccc(-c3ccccc3OC(F)(F)F)c(CCN(C)C3CC3)c2)ccc1S(N)(=O)=O
IC50 [2]: 0.022 µM

Next, values leading:

IC50 [1]: 1.1 µM
Compound: CC(C)C[C@H](NC(=O)[C@H](CC(C)C)NC(=O)[C@H](CCC(=O)O)NC(=O)[C@H](CO)NC(=O)[C@H](CS)NC(=O)[C@@H]1CCCN1C(=O)[C@H](CCCNC(=N)N)NC(=O)[C@@H](N)CCCNC(=N)N)C(=O)N[C@@H](CCCCN)C(=O)N[C@@H](Cc1ccc(O)cc1)C(=O)N[C@@H](CC(C)C)C(=O)N[C@H](C(=O)N[C@H](C(=O)N[C@@H](CC(N)=O)C(=O)N[C@@H](CC(=O)O)C(=O)O)[C@H](C)O)[C@H](C)O

IC50 [1]: 4.6 µM
Compound: H-QEKHRILHKLLQNGN-OH

Kd [7]: 0.0005 to 0.002 µM
Compound: C[C@]12CCC(=O)C=C1CC[C@@H]1[C@@H]2[C@@H](O)C[C@@]2(C)[C@H]1CC[C@]2(O)C(=O)CO [HYDROCORTISONE]

IC50 [1]: 1.4 µM
Compound: H-KENNALLRYLLDRDD-OH

Kd [7]: 0.0005 to 0.002 µM
Compound: C[C@]12C[C@H](O)[C@H]3[C@@H](CCC4=CC(=O)CC[C@@]43C)[C@@H]1CC[C@@H]2C(=O)CO [CORTICOSTERONE]
